We go through one molecule from US12440466B2, “Fatty acid derivatives for treating non-alcoholic steatohepatitis” (BASF AS, priority 2017, dated 2025).

Marks after values point to notes of the source that are not given here.

One assay relates to CDAA/high-fat fed mice. Briefly: Hepatic collagen fiber number, thickness and length by nonlinear multiphoton optical imaging, CDAA/high-fat diet mouse model. It counts as in vivo. The following applies: Compound A 56 mg/kg bw per day orally. As for the experimental part: Mice were fed either choline-sufficient (CS) or choline deficient high-fat diets (31% total calories; “CDAA/high-fat”). The NASH inducing diet was instigated 6 weeks prior to the commencement of treatment in order to design the study as a treatment/reversal set-up rather than prophylaxis.
In Biological Examples 6 and 7, mice were fed either CS or CDAA/high-fat diets as described above. […] The effect on hepatic collagen fiber number, thickness, and length was determined via nonlinear multiphoton optical imaging system in isolated liver samples from vehicle control (n=8), Compound A (n=9) and GLP-1R (n=8) fed groups.

The test system of assay [1] is APOE*3Leiden.CETP mice. The assay can be described thus: Hepatocellular hypertrophy grading in APOE*3Leiden.CETP double transgenic mice. Type of assay: in vivo, mouse. As to conditions: APOE*3Leiden.CETP mice on high fat/cholesterol diet; 0.3 mmol/kg bw per day by gavage; 20 weeks. An excerpt:
(§1) The APOE*3Leiden.CETP double transgenic mouse expresses a variant of the human apolipoprotein E3 (APOE3), the APOE*3Leiden, in addition to the human apolipoprotein C1 (APOC1) and CETP. […] By increasing the cholesterol content of the diet in this model, all the characteristics of human NASH develop.
In one study (using 1% cholesterol w/w), after a 3 weeks run-in period low-responder mice (20% of total) were removed from the study and the remaining mice were sub-divided into 4 groups of 12 mice each (+5 in the control group), matched for plasma cholesterol, triglycerides, blood glucose, body weight and age (t=0) and treatment was started. The mice received a daily gavage between 07hr00 and 10hr00 with either Compound A at 0.3 mmol/kg bw per day, the comparison compound Compound N (0.3 mmol/kg bw per day), rosiglitazone (13 mg/kg bw per day) or control (corn oil). After 20 weeks of treatment mice were sacrificed by CO2 asphyxiation, the liver was collected and the level of hepatocellular hypertrophy was graded.

Assay [2] has as its system APOE*3Leiden.CETP mice. Briefly: Hepatic free cholesterol, cholesterol ester and triglyceride content (HPTLC) in APOE*3Leiden.CETP mice. Type of assay: in vivo, mouse. As to conditions: ApoE*3L-CETP mice, Western diet 0.25% cholesterol, 4 weeks; Compound A LD 0.3 mmol/kg bw/day; EPA/DHA ethyl esters HD 3 mmol/kg bw/day.
Text: as §1
In Biological Example 25, the effects of Compound A alone and in combination with omega-3 fatty acid were studied. APOE*3Leiden.CETP mice were placed on a semi-synthetic high fat diet (24% fat w/w) with […] w/w. After a 4-week run-in period, low-responder mice were removed from the study and the remaining mice were sub-divided into groups of 8 mice each, matched for plasma cholesterol, triglycerides, blood glucose, body weight and age (t=0) and treatment was started. To facilitate mixing of the compounds, sunflower oil was added to a total oil volume of 10 mL/kg diet. Compound A was administered at 0.3 mmol/kg bw/day whilst the omega-3 fatty acid ethyl-esters (85% w/w EPA/DHA ethyl-esters) were administered at 3.0 mmol/kg bw/day. Both Compound A and the omega-3 ethyl esters were administered orally as admix to the high-fat diet. After 4 weeks of treatment, mice were sacrificed by C02 asphyxiation, the liver was collected and the hepatic content of free cholesterol, cholesterol ester and triglyceride were measured after extraction and separation by high performance thin layer chromatography.

The next assay concerns hepatic transcriptome. The assay can be described thus: Hepatic transcriptome (gene expression probes) in APOE*3.CETP transgenic mice. Type of assay: in vivo, mouse. The following applies: Compound A at a fraction of the dose of the omega-3 ethyl esters, data not shown.
In a further assay the test system is inflammatory genes. The assay can be described thus: Hepatic inflammatory gene expression in ob/ob AMLN mice. Type of assay: in vivo, mouse. As to conditions: 4 weeks, Compound A 112 mg/kg. The method, then:
(§2) Obese diet-induced B6.V-Lepob/Jrj mice (ob/ob) are consistently fibrosis (liver) prone when cholesterol (2%), 40% fat (containing 18% trans-fatty acids) and 20% fructose are added to a high-caloric diet (i.e., AMLN high-fat diet). ob/ob mice on AMLN diet (termed ‘ob/ob AMLN mice’) develop steatohepatitis and fibrosis within a shorter timeframe ([…]) compared with wild-type C57BL/6 mice (AMLN mice) fed the same diet. ob/ob AMLN mice provide an obese diet-induced model of NASH that also allows the study of effects on glycemic control. Development of NASH in the ob/ob AMLN model is confirmed by biopsy.
In Biological Examples 10-12, 15, and 19, studies were performed in male ob/ob mice (5 weeks old) fed an AMLN high-fat diet for 15 weeks, then randomized into 3 groups (n=10 per group) to receive either 112 mg/kg bw per day of Compound A via diet, 30 mg/kg bw per day pioglitazone via diet or no treatment (vehicle) for a further 4 weeks. An oral glucose tolerance test (OGTT) was performed at week 3. Hepatic fibrosis was assessed via measurements of hepatic fibrogenic/fibrolytic gene expression by RNA sequencing at 4 weeks.

In the next assay the test system is ob/ob AMLN mice. Briefly: Hepatic hydroxyproline (HYP) content in ob/ob AMLN mice. The following applies: 8 weeks; for HYP content, total: p<0.01; for HYP content, relative: p<0.05. Type of assay: in vivo, mouse. The method, then:
as §2
In Biological Examples 10, 13-14, and 16-18, studies were performed in male ob/ob mice (5 weeks old) fed an AMLN high-fat diet for 18 weeks, then randomized into 6 groups (n=10 per group) to receive either Compound A (at 3 different daily doses, 45 mg/kg, 90 mg/kg or 135 mg/kg) via diet, 30 mg/kg bw per day obeticholic acid (OCA) via diet, or no treatment (vehicle) for a further 8 weeks. Assessment of NASH related parameters and fibrosis was made at study end by quantitative immune histochemistry (IHC) measurements.
To corroborate the anti-fibrotic effects seen with quantitative IHC, hepatic concentrations of hydroxyproline (HYP) were measured, as shown in FIG. 6E and FIG. 6F.

The mark [3] stands for this setting: pioglitazone 30 mg/kg, data not shown.
Setting [4] is: pioglitazone 30 mg/kg, vs vehicle.

In the case of `CC/C=C\C/C=C\C/C=C\C/C=C\C/C=C\CCCCOC(CC)C(=O)O` (centres unmarked) [Compound A, 2-((5Z,8Z,11Z,14Z,17Z)-icosa-5,8,11,14,17-pentaenyloxy)butanoic acid], in the assay on CDAA/high-fat fed mice, the collagen fiber length result is recorded as “slight increases”; the collagen fiber thickness result is given as “slight increases”; the “short (<8.5 μm) and thin (<3.5 μm) collagen fibers” value is on record as “almost complete disappearance”. In addition, the “reduction of collagen fiber numbers” value in the assay with CDAA/high-fat fed mice (p=0.01) is 51%. Further, in the assay with APOE*3Leiden.CETP mice [1], the “Decrease in hypertrophy vs. control (%)” value is recorded as 83* % and the Hepatocellular hypertrophy was 8.9 ± 5.9. For the same molecule, in the assay with APOE*3Leiden.CETP mice [2], the “Hepatic CE” value is given as 17*, the “Hepatic FC” value is listed as 9.5 and the “Hepatic TG” value was 58.8. For the same molecule, in the assay on hepatic transcriptome, the “gene expression probes significantly up- or down-regulated in the liver” value is given as greater than 1094. In addition, the MAC-2 expression result with inflammatory genes (data not shown) was “Significant reductions”. Besides, in the assay with inflammatory genes (setting [3]), the MCP-1 transcript levels entry is “Neither compound significantly reduced” and the “interleukin (IL)-1β transcript levels” value is on record as “Neither compound significantly reduced”. Moreover, in the assay with inflammatory genes (setting [4]), the CCR2 expression entry is recorded as “Significant reductions”, the CD14 expression entry is “Significant reductions”, the CD68 expression result is reported as “Significant reductions” and the “transcript levels of TGF-β1” value was “reduced”. The “transcript levels of TGF-β1 receptor (TGFRβ)” value in the assay on inflammatory genes (setting [4]) is “reduced”. For the same molecule, the “Galectin-3 (Gal-3) levels” value with inflammatory genes (vs vehicle) is on record as “significantly reduced”. Further, in the assay on ob/ob AMLN mice (Compound A 90 mg/kg), the “HYP content, total” value is given as “reduced” and the “HYP content, relative” value is listed as “reduced”. In the assay on ob/ob AMLN mice (Compound A 135 mg/kg), the “HYP content, total” value is on record as “reduced” and the “HYP content, relative” value is “reduced”.
